From patent US8729089B2 (Gilead Sciences, Inc., priority 2006, dated 2014) come the findings set out here.

For data set [1], the system named is HCV replicon in human hepatoma Huh-7 cell line. Kind of data set: Anti-HCV replicon assay (EC50, luciferase). In kind it is cell-based. The following applies: Hepatitis C virus, Huh-7, 72 h. The protocol:
(§1) The anti-HCV activity of the pyrido[3,2-d]pyrimidine derivatives of this invention was tested in a human hepatoma Huh-7 cell line harboring a HCV replicon. The assay comprised the following steps:
(§2) Step 1: Compound Preparation and Serial Dilution
(§3) • 1. for water soluble pyrido[3,2-d]pyrimidine derivatives, a volume of 500 μL of solution in cell media (DMEM, 10% FBS, P/S, L-Glutamine) was prepared with a concentration being twice the concentration of the starting final serial dilution concentration. A volume of 150 μL of the solution was added to the pre-specified wells in column 1 of a 96-well cell culture plate (PerkinElmer, white plate, cat. #6005181, for EC50 assay; black plate, cat. #6005182 for CC50 assay). The rest of the plate, columns 2-12, was filled with 100 μL of cell media. The plate was then placed on a Precision 2000 Workstation to start the serial dilution. Compounds were diluted three times each step from column 1 to column 10. Column 11 was used as a blank control (no compound added). • 2. for pyrido[3,2-d]pyrimidine derivatives requiring DMSO to dissolve, serial dilution is performed in 50% DMSO in a 384-well plate. A solution containing a compound at 100-fold concentration of the starting final serial dilution concentration was prepared in 50% DMSO and added to the pre-specified wells in column 1 of a polypropylene 384-well plate. The plate was then placed on a Precision 2000 Workstation to start the serial dilution. After the serial dilution, a volume of 2 μL of the solution was transferred from the 384-well plate to a 96-well cell culture plate containing 100 μL of cell media on a Biomek FX Workstation. The DMSO concentration in the final assay condition was 0.5% after cells are added to the plate and the total volume in each well is brought to 200 μL.
(§4) Step 2: to each well of the serial dilution plate prepared above, 100 μL of cell media containing 6000 suspended Huh-7 HCV replicon cells was added with a Multidrop workstation. The plates were incubated for 3 days at 37° C. with 5% CO2.
(§5) • a) for the EC50 assay, the media in a 96-well cell culture plate was aspirated with a Biotek EL405 plate-washer. A volume of 200 μL of a solution containing a 1:1 mixture of cell-lysis buffer (Promega, Luciferase Cell Culture Lysis 5× Reagent, cat. #E1531) and luciferase substrate solution (Promega, Luciferase Assay, cat.#E4550) was added to each well of the plate with Multidrop. The plate was incubated for 30 minutes at room temperature before the luminescence signal was measured with a TopCount plate-reader. • b) for the CC50 assay, a volume of 100 μL of pre-mixed CellTiter-Glo (Promega, cat.#G7572) solution is added directly to the cell culture in each well of the plate and the luminescence signal is measured with a TopCount plate-reader after 10 minutes of incubation at room temperature.
(Replicon systems follow genome replication, usually without infectious particles.)

A short description of data set [2]: CC50 assay (CellTiter-Glo) in Huh-7 HCV replicon cells. In kind it is cell-based, human. The following applies: human, 3 days incubation, CellTiter-Glo readout. The protocol:
as §1, §2, §3, §4, §5

Molecules are shown by their SMILES.

In the case of `CCOc1nc(NCc2ccc(F)cc2)nc2ccc(-c3ccc4c(c3)CC(=O)N4)nc12` [Example 78, 5-[4-Ethoxy-2-(4-fluoro-benzylamino)-pyrido[3,2-d]pyrimidin-6-yl]-1,3-dihydro-indol-2-one], the EC50 (in general, the midpoint of the concentration-response curve) in data set [1] was below 0.1 µM. The 50% cytotoxic concentration (CC50) (usually the concentration that lowers cell viability or growth by half) at 3 days in data set [2] was in the range of 5 to 25 µM.

In the case of `CCOc1nc(NC2(c3ccc(F)cc3)CC2)nc2ccc(-c3ccc(C(=O)NC(C)(C)CN4CCCC4)cc3)nc12` [Example 96, N-(1,1-Dimethyl-2-pyrrolidin-1-yl-ethyl)-4-{4-ethoxy-2-[1-(4-fluoro-phenyl)-cyclopropylamino]-pyrido[3,2-d]pyrimidin-6-yl}-benzamide], the concentration for a half-maximal effect (EC50) in data set [1] is below 0.1 µM. The cytotoxic concentration (CC50) at 3 days in data set [2] is below 5 µM.

In data set [1], `CCOc1nc(NCc2ccc(F)cc2)nc2ccc(-c3ccc(F)c(Cl)c3)nc12` [Example 64, [6-(3-Chloro-4-fluoro-phenyl)-4-ethoxy-pyrido[3,2-d]pyrimidin-2-yl]-(4-fluoro-benzyl)-amine] showed a half-maximal effective concentration (EC50) below 0.1 µM. In addition, in data set [2], the half-maximal cytotoxic concentration (CC50) at 3 days is 5 to 25 µM.

Consider `CCOc1nc(NCc2cccnc2)nc2ccc(-c3ccc(F)cc3)nc12` [Example 263, [4-Ethoxy-6-(4-fluoro-phenyl)-pyrido[3,2-d]pyrimidin-2-yl]-pyridin-3-ylmethyl-amine], for which, in data set [1], the EC50 is below 0.1 µM. Also, the cytotoxic concentration (CC50) at 3 days in data set [2] is above 25 µM.

The molecule `COCCNS(=O)(=O)c1cc(-c2ccc3nc(NCc4ccc(S(N)(=O)=O)cc4)nc(NCC(F)(F)F)c3n2)ccc1Cl` [Example 198, 2-Chloro-N-(2-methoxy-ethyl)-5-[2-(4-sulfamoyl-benzylamino)-4-(2,2,2-trifluoro-ethylamino)-pyrido[3,2-d]pyrimidin-6-yl]-benzenesulfonamide] gave an EC50 in data set [1] below 0.1 µM. The half-maximal cytotoxic concentration (CC50) at 3 days in data set [2] was in the range of 5 to 25 µM.

In turn, `CCOc1nc(NCc2ccc(F)cc2)nc2ccc(-c3ccc(NC(=O)C4CC4)nc3)nc12` [Example 79, Cyclopropanecarboxylic acid {5-[4-ethoxy-2-(4-fluoro-benzylamino)-pyrido[3,2-d]pyrimidin-6-yl]-pyridin-2-yl}-amide] gave a 50% effective concentration (EC50) in data set [1] below 0.1 µM. The molecule further had a CC50 at 3 days in data set [2] of 5 to 25 µM.

As for `Fc1ccc(CNc2nc(NCC(F)(F)F)c3nc(-c4ccc(F)cc4)ccc3n2)cc1` [Example 33, N2-(4-Fluoro-benzyl)-6-(4-fluoro-phenyl)-N4-(2,2,2-trifluoro-ethyl)-pyrido[3,2-d]pyrimidine-2,4-diamine], the EC50 in data set [1] is below 0.1 µM. Also, the CC50 at 3 days in data set [2] is 5 to 25 µM.

In turn, `CCOc1nc(NCc2ccc(F)c(F)c2F)nc2ccc(-c3ccc(F)cc3)nc12` [Example 41, [4-Ethoxy-6-(4-fluoro-phenyl)-pyrido[3,2-d]pyrimidin-2-yl]-(2,3,4-trifluoro-benzyl)-amine] registered an EC50 in data set [1] below 0.1 µM. Moreover, the half-maximal cytotoxic concentration (CC50) at 3 days in data set [2] fell in the range of 5 to 25 µM.

`CS(=O)(=O)CCNc1nc(NCc2ccc(S(N)(=O)=O)cc2)nc2ccc(-c3ccc(F)c(Cl)c3)nc12` [Example 150, 4-{[4-(2-Methanesulfonylethyl)-amino-6-(3-chloro-4-fluorophenyl)-pyrido[3,2-d]pyrimidin-2-ylamino]-methyl}-benzenesulfonamide] displayed an EC50 in data set [1] below 0.1 µM. The molecule further returned a CC50 at 3 days in data set [2] below 5 µM.

For the molecule `CC(C)(N)C(=O)Nc1ccc(-c2ccc3nc(NCc4ccc(S(N)(=O)=O)cc4)nc(NCCS(C)(=O)=O)c3n2)cc1` [Example 154, 4-{[4-(2-Methanesulfonylethyl)-amino-6-(4-((2-amino-2-propyl)-carboxamido)-phenyl)-pyrido[3,2-d]pyrimidin-2-ylamino]-methyl}-benzenesulfonamide], the half-maximal effective concentration (EC50) in data set [1] is 0.1 to 0.25 µM. In addition, in data set [2], the half-maximal cytotoxic concentration (CC50) at 3 days is above 25 µM.

`CCOc1nc(NCc2ccc(F)cc2)nc2ccc(-c3ccc(NC(=O)CO)cc3)nc12` [Example 69, N-{4-[4-Ethoxy-2-(4-fluoro-benzylamino)-pyrido[3,2-d]pyrimidin-6-yl]-phenyl}-2-hydroxy-acetamide] returned an EC50 in data set [1] below 0.1 µM. For the same molecule, in data set [2], the CC50 at 3 days is above 25 µM.

As to `NS(=O)(=O)c1ccc(CNc2nc(NCC(F)F)c3nc(-c4ccc(F)cc4)ccc3n2)cc1` [Example 151, 4-{[4-(2,2-Difluoroethyl)-amino-6-(4-fluorophenyl)-pyrido[3,2-d]pyrimidin-2-ylamino]-methyl}-benzenesulfonamide], the concentration giving a half-maximal response (EC50) in data set [1] is below 0.1 µM. Also, the CC50 at 3 days in data set [2] was below 5 µM.

In data set [1], `CCOc1nc(NCc2ccc(F)cc2)nc2ccc(-c3ccc(C(=O)NC(C)(C)CN4CCCC4)cc3)nc12` [Example 95, N-(1,1-Dimethyl-2-pyrrolidin-1-yl-ethyl)-4-[4-ethoxy-2-(4-fluoro-benzylamino)-pyrido[3,2-d]pyrimidin-6-yl]-benzamide] came in with a 50% effective concentration (EC50) below 0.1 µM. Also, the cytotoxic concentration (CC50) at 3 days in data set [2] was below 5 µM.

As for `CCOc1nc(NCc2ccc(F)cc2)nc2ccc(-c3ccc(CO)o3)nc12` [Example 97, {5-[4-Ethoxy-2-(4-fluoro-benzylamino)-pyrido[3,2-d]pyrimidin-6-yl]-furan-2-yl}-methanol], the EC50 in data set [1] is below 0.1 µM. Further, the CC50 at 3 days in data set [2] lay within 5 to 25 µM.

Turning to `CS(=O)(=O)C1CCN(c2nc(NCc3ccc(F)cc3)nc3ccc(-c4ccc(F)cc4)nc23)C1` (stereo not shown) [Example 27, (4-Fluoro-benzyl)-[6-(4-fluoro-phenyl)-4-(3-methanesulfonyl-pyrrolidin-1-yl)-pyrido[3,2-d]pyrimidin-2-yl]-amine], the concentration giving a half-maximal response (EC50) in data set [1] is below 0.1 µM. Moreover, the CC50 at 3 days in data set [2] was below 5 µM.

In data set [1], `CS(=O)(=O)CCNc1nc(NCc2ccc(F)cc2)nc2ccc(-c3ccc(F)cc3)nc12` [Example 299, N2-(4-Fluoro-benzyl)-6-(4-fluoro-phenyl)-N4-(2-methanesulfonyl-ethyl)-pyrido[3,2-d]pyrimidine-2,4-diamine] had an EC50 below 0.1 µM. The molecule also had a 50% cytotoxic concentration (CC50) at 3 days in data set [2] of 5 to 25 µM.

`NS(=O)(=O)c1ccc(CNc2nc(NCC(F)(F)F)c3nc(-c4ccc(=O)[nH]c4)ccc3n2)cc1` [Example 287, 4-{[6-(6-Oxo-1,6-dihydro-pyridin-3-yl)-4-(2,2,2-trifluoro-ethylamino)-pyrido[3,2-d]pyrimidin-2-ylamino]-methyl}-benzenesulfonamide] returned a concentration giving a half-maximal response (EC50) in data set [1] below 0.1 µM. In addition, the cytotoxic concentration (CC50) at 3 days in data set [2] was above 25 µM.

For the molecule `N#Cc1ccc(-c2ccc3nc(NCc4ccc(S(N)(=O)=O)cc4)nc(NCC(F)(F)F)c3n2)cc1` [Example 212, 4-{[6-(4-Cyano-phenyl)-4-(2,2,2-trifluoro-ethylamino)-pyrido[3,2-d]pyrimidin-2-ylamino]-methyl}-benzenesulfonamide], the EC50 in data set [1] was below 0.1 µM. This molecule gave a CC50 at 3 days in data set [2] of 5 to 25 µM.

Molecule `CCOc1nc(NCc2ccc(F)cc2)nc2ccc(-c3ccc(N4CCC(O)C4=O)cc3)nc12` (stereo not shown) [Example 86, 1-{4-[4-Ethoxy-2-(4-fluoro-benzylamino)-pyrido[3,2-d]pyrimidin-6-yl]-phenyl}-3-hydroxy-pyrrolidin-2-one] gave an EC50 in data set [1] below 0.1 µM. The cytotoxic concentration (CC50) at 3 days in data set [2] is below 5 µM.

In data set [1], `CCOc1nc(NCc2ncco2)nc2ccc(-c3ccc(F)cc3)nc12` [Example 266, [4-Ethoxy-6-(4-fluoro-phenyl)-pyrido[3,2-d]pyrimidin-2-yl]-oxazol-2-ylmethyl-amine] gave a concentration giving a half-maximal response (EC50) below 0.1 µM. In data set [2], this molecule came in with a CC50 at 3 days above 25 µM.
